Experimental data from ChEMBL document CHEMBL1156512, “Accumulation of glucosylceramide in murine testis, caused by inhibition of beta-glucosidase 2: implications for spermatogenesis” (J Biol Chem, 2007).
One block for each compound: values may come before it. Calls of active or inactive are those of the source. No cut-off for these calls is given here.

Assays:
[1] = system: Mus musculus; assay: Increase in very long and polyunsaturated glucosylceramide level in C57BL/6 mouse testes at 150 mg/kg/day administered with chow; format: functional, organism-based; settings: Testis
[2] = system: Mus musculus; assay: Increase in glucosylceramide level in GBA2 deficient C57BL/6-129S1 mouse testes at 150 mg/kg/day administered with chow; format: functional, organism-based; settings: Testis
[3] = system: Mus musculus; assay: Increase in glucosylceramide level in GBA2 deficient C57BL/6-129S1 mouse somatic cells at 150 mg/kg/day administered with chow; format: functional, organism-based
[4] = system: Mus musculus; assay: Increase in glucosylceramide level in GBA2 deficient C57BL/6-129S1 mouse germ cells at 150 mg/kg/day administered with chow; format: functional, organism-based
[5] = system: Mus musculus; assay: Effect on testicular ceramides level in C57BL/6 mouse at 150 mg/kg/day administered with chow; format: functional, organism-based
[6] = system: Mus musculus; assay: Effect on testicular sphingomyelin level in C57BL/6 mouse at 150 mg/kg/day administered with chow; format: functional, organism-based
[7] = system: Mus musculus; assay: Decrease in testicular very long chain polyunsaturated fatty acid sphingomyelin level in beta-glucosidase 2 deficient C57BL/6-129S1 mouse at 150 mg/kg/day administered with chow; format: functional, organism-based
[8] = system: Serum; assay: Drug level in C57BL/6 mouse serum at 15 mg/kg/day assessed as enzyme activity; format: ADME, organism-based; settings: in vivo, read-out: Drug uptake
[9] = system: Mus musculus; assay: Effect on spermatogenesis in C57BL/10 mouse assessed as morphological changes in spermatozoa at 15 mg/kg/day administered with chow; format: functional, organism-based
[10] = system: Mus musculus; assay: Effect on spermatogenesis in C57BL/6 mouse assessed as morphological changes in spermatozoa at 150 mg/kg/day administered with chow; format: functional, organism-based
[11] = system: Mus musculus; assay: Effect on spermatogenesis in C57BR mouse assessed as morphological changes in spermatozoa at 150 mg/kg/day administered with chow; format: functional, organism-based
[12] = system: Mus musculus; assay: Effect on spermatogenesis in BALB/c mouse assessed as morphological changes in spermatozoa at 150 mg/kg/day administered with chow; format: functional, organism-based
[13] = system: Mus musculus; assay: Effect on spermatogenesis in AKR mouse assessed as morphological changes in spermatozoa at 150 mg/kg/day administered with chow; format: functional, organism-based
[14] = system: Mus musculus; assay: Effect on spermatogenesis in MA/My mouse assessed as morphological changes in spermatozoa at 150 mg/kg/day administered with chow; format: functional, organism-based
[15] = system: Mus musculus; assay: Effect on spermatogenesis in NZW mouse assessed as morphological changes in spermatozoa at 150 mg/kg/day administered with chow; format: functional, organism-based
[16] = system: Mus musculus; assay: Effect on spermatogenesis in DBA2 mouse assessed as morphological changes in spermatozoa at 150 mg/kg/day administered with chow; format: functional, organism-based
[17] = system: Mus musculus; assay: Effect on spermatogenesis in C57BL/6-129S1 mouse assessed as morphological changes in spermatozoa at 150 mg/kg/day administered with chow; format: functional, organism-based
[18] = system: Mus musculus; assay: Effect on spermatogenesis in C3H mouse assessed as morphological changes in spermatozoa at 150 mg/kg/day administered with chow; format: functional, organism-based
[19] = system: Mus musculus; assay: Effect on spermatogenesis in FVB/N mouse assessed as morphological changes in spermatozoa at 15 mg/kg/day administered with chow; format: functional, organism-based
[20] = system: Mus musculus; assay: Effect on complex glycosylated sphingolipids level in C57BL/6 mouse testes at 15 to 50 mg/kg/day, po; format: functional, organism-based; settings: Testis
[21] = system: Mus musculus; assay: Reduction of complex glycosylated sphingolipids level in C57BL/6 mouse testes at 2400 mg/kg/day administered with chow; format: functional; set-up: scale not given: the % may be the effect or the level left
[22] = system: Mus musculus; assay: Increase in complex glycosylated sphingolipids in C57BL/6 mouse testes at 5 mg/kg/day administered with chow; format: functional, Testis
[23] = system: Mus musculus; assay: Increase in complex glycosylated sphingolipids level in C57BL/6 mouse testes at 15 mg/kg/day administered with chow after 6 to 9 months; format: functional, organism-based; settings: Testis
[24] = species on record: Mus musculus; assay: Increase in neutral glycolipids level in C57BL/6 mouse testes; format: functional, organism-based; settings: Testis
[25] = species on record: Mus musculus; assay: Effect on glucosylceramide level in C57BL/6 mouse testes; format: functional, organism-based; settings: Testis
[26] = system: Mus musculus; assay: Effect on glucosylceramide level in C57BL/6 mouse testes at 15 mg/kg/day administered with chow; format: functional, organism-based; settings: Testis
[27] = system: Mus musculus; assay: Increase in glucosylceramide level in C57BL/6 mouse testes at 300 mg/kg/day administered with chow; format: functional, organism-based; settings: Testis
[28] = system: Mus musculus; assay: Increase in glucosylceramide level in C57BL/6 mouse spleen administered with chow; format: functional, organism-based
[29] = system: Mus musculus; assay: Increase in glucosylceramide level in C57BL/6 mouse liver administered with chow; format: functional, organism-based
[30] = system: Mus musculus; assay: Increase in glucosylceramide level in C57BL/6 mouse brain at 1200 mg/kg/day administered with chow; format: functional, organism-based
[31] = system: Mus musculus; assay: Increase in glucosylceramide level in C57BL/6 mouse testes administered with chow after 5 days; format: functional, organism-based; settings: Testis
[32] = system: Mus musculus; assay: Increase in glucosylceramide level in C57BL/6 mouse testes administered with chow at 15 mg/kg/day after 3 to 12 months; format: functional, Testis
[33] = system: Mus musculus; assay: Increase in long and saturated glucosylceramide level in C57BL/6 mouse testes at 150 mg/kg/day administered with chow; format: functional, organism-based; settings: Testis
[34] = target: T1, Beta-glucosidase (Homo sapiens, UniProt Q9HCG7); assay: Inhibition of bile acid beta-glucosidase activity of human liver GBA2
T1 sequence (Q9HCG7 whole entry): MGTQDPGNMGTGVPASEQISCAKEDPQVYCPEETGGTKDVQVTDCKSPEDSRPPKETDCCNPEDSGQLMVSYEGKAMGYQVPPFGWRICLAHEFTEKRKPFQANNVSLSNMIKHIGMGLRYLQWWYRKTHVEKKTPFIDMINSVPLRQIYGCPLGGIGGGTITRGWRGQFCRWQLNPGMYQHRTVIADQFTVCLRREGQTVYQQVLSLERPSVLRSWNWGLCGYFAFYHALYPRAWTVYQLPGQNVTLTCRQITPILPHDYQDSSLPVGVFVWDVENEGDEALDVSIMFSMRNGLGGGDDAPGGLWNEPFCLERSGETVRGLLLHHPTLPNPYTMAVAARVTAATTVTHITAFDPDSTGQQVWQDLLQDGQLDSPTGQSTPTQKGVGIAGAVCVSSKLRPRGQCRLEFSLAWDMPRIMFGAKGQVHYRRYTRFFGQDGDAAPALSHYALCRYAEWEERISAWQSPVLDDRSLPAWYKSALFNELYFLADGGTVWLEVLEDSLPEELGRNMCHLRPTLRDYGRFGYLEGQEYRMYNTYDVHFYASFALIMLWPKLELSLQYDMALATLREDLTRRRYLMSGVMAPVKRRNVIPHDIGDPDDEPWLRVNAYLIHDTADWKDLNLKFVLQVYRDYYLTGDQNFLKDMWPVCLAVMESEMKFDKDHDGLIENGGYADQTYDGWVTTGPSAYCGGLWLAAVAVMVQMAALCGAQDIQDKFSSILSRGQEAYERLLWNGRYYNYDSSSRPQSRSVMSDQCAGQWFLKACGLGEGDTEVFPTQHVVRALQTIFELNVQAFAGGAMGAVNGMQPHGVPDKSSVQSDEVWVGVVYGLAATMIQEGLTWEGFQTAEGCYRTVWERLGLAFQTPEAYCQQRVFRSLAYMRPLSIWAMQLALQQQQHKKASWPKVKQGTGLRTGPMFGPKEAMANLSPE

[35] = target: T2, Ceramide glucosyltransferase (Mus musculus, UniProt O88693); assay: Inhibition mouse glucosylceramide synthase
T2 sequence (O88693 whole entry): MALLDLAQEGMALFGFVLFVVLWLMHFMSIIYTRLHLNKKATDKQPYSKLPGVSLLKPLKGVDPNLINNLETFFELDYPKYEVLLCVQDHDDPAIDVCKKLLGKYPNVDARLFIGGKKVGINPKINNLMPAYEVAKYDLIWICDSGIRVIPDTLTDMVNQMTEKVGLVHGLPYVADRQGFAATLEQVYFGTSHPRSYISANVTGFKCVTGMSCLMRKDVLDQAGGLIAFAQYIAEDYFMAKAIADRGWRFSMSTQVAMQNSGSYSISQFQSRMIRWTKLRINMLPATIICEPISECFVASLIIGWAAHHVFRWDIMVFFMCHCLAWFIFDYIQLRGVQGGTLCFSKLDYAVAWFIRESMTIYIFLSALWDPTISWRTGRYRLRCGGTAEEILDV

- concentration [8]: 490 nM
SMILES: CCCCN1C[C@H](O)[C@@H](O)[C@H](O)[C@H]1CO
- Activity [1]: Active
- Activity [2]: Active
- Activity [3]: Active
- Activity [4]: Active
- Activity [5]: inactive
- Activity [6]: inactive
- Activity [7]: Active
- Activity [9]: Active
- Activity [10]: Active
- Activity [11]: Active
- Activity [12]: inactive
- Activity [13]: inactive
- Activity [14]: inactive
- Activity [15]: inactive
- Activity [16]: inactive
- Activity [17]: inactive
- Activity [18]: inactive
- Activity [19]: inactive
- Activity [20]: inactive
- Activity [21]: 22%
- Activity [22]: 15%
- Activity [23]: Active
- Activity [24]: Active
- Activity [25]: Dose-dependent effect
- Activity [26]: Active
- Activity [27]: Active
- Activity [28]: Active
- Activity [29]: inactive
- Activity [30]: Active
- Activity [31]: Active
- Activity [32]: 5
- Activity [33]: Active

- IC50 [34]: 2 nM
SMILES: CCCCCCCCCCCCN1C[C@H](O)[C@@H](O)[C@H](O)[C@H]1CO

- IC50 [35]: 5300 nM
SMILES: CCCCN1[C@H](CO)[C@H](O)[C@H](O)[C@@H](O)[C@@H]1O

- IC50 [34]: 20 nM
SMILES: CCCCCCCCCOC(=O)N1C[C@H](O)[C@@H](O)[C@H](O)[C@H]1CO
